In patent US12428455B2, “Dominant negative CEBPB and CEBPD proteins and methods of use for decreasing viability of neoplastic cells” (The Trustees of Columbia University in the City of New York, priority 2018, dated 2025):

Legend:
[1] = tested on: MDA-MB 231, HCT116, and A375 cells; experiment: Peptide treatment after doxorubicin pre-treatment, cell number; assay type: cell-based; conditions: 100 nM, 24 hours
Method: Replicate cultures of MDA-MB 231, HCT116, and A375 cells were pretreated with 100 nM doxorubicin for 24 hours, and then treated with 1 μM, 3 μM, 10 μM, or 20 μM CP-dn-CEBPB and CP-dn-CEBPD peptides, maintained for 6 days, and then assessed for cell number. The bar graphs of FIGS. 31A (MDA-MB 231, CP-dn-CEBPB), 31C (MDA-MB 231, CP-dn-CEBPBD, 31E (HCT116, CP-dn-CEBPBD), 31G (HCT116, CP-dn-CEBPD), 31I (A375, CP-dn-CEBPBB), and 31K (A375, CP-dn-CEBPBD) show relative cell numbers for each condition as compared to untreated controls. The line graphs of FIGS. 31B (MDA-MB 231, CP-dn-CEBPB), 31D (MDA-MB 231, CP-dn-CEBPBD), 31F (HCT116, CP-dn-CEBPB), 31H (HCT116, CP-dn-CEBPD), 31J (A375, CP-dn-CEBPB), and 31L (A375, CP-dn-CEBPBD) show the response as normalized in each case so that 100 represents the relative number of surviving cells that received the indicated level of doxorubicin, but no peptide treatment.

[2] = tested on: paclitaxel-resistant T98G cells; experiment: Cell number, paclitaxel-resistant T98G cells; assay type: cell-based; conditions: 6 days; 0 μM to 50 μM peptide or 0 nM to 50 nM paclitaxel
Method: Replicate cultures of T98G wild type cells and paclitaxel-resistant T98G cells were treated with 0 nM to 50 nM paclitaxel or 0 μM to 50 μM CP-dn-CEBPB or CP-dn-CEBPD peptides, maintained for 6 days, and then assessed for cell number. Paclitaxel resistant T98G cells were inhibited by both CP-dn-CEBPB (FIG. 28A) and CP-dn-CEBPD (FIG. 28B), but, as expected were not inhibited by paclitaxel (FIG. 28C). This establishes that CP-dn-CEBPB and CP-dn-CEBPD may be effective against chemotherapy-resistant cells.

Row | SMILES | effect of doxorubicin pre-treatment on growth of the cancer cells [1] | inhibition of paclitaxel-resistant T98G cells (cell number) [2]
1 | COc1cccc2c1C(=O)c1c(O)c3c(c(O)c1C2=O)C[C@@](O)(C(=O)CO)C[C@@H]3O[C@H]1C[C@H](N)[C@H](O)[C@H](C)O1 [doxorubicin, reference compound] | inhibited grown of the cancer cells | –
2 | CC(=O)O[C@H]1C(=O)[C@@]2(C)[C@H]([C@H](OC(=O)c3ccccc3)[C@]3(O)C[C@H](OC(=O)[C@H](O)[C@@H](NC(=O)c4ccccc4)c4ccccc4)C(C)=C1C3(C)C)[C@]1(OC(C)=O)CO[C@@H]1C[C@@H]2O [paclitaxel, reference compound] | – | not inhibited
